Where “and” joins values, the source holds several entries; their conditions need not be identical. Identical values can stand only once.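 Protocol summary: plate cells (96-well), add compound at 5 concentrations, incubate 48 h, interpolate endpoints linearly. Here, GI50 denotes the concentration required for 50% inhibition of growth.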 Calls of active or inactive are those of the source. No stated cut-off is given here; in the data, active = GI50 up to about 1.1 µM and inactive = higher.
Tests used:
Assay in all cases: NCI tumour cell line growth inhibition, 48 h
[1] = tested on: SW-620
[2] = tested on: EKVX
[3] = tested on: K562
[4] = tested on: KM12
[5] = tested on: IGROV-1
[6] = tested on: NCI-H23
[7] = tested on: SK-MEL-28
[8] = tested on: DLD-1
[9] = tested on: HT-29
[10] = tested on: NCI-H460
[11] = tested on: OVCAR-3
[12] = tested on: SK-MEL-5
[13] = tested on: HL-60
[14] = tested on: OVCAR-5
[15] = tested on: NCI-H226
[16] = tested on: NCI-H522
[17] = tested on: Malme-3M
[18] = tested on: COLO 205
[19] = tested on: RXF 631
[20] = tested on: DMS-114
[21] = tested on: SK-OV-3
[22] = tested on: TK-10
[23] = tested on: UACC-62
[24] = tested on: OVCAR-8
[25] = tested on: A498
[26] = tested on: CAKI-1
[27] = tested on: LOX IMVI
[28] = tested on: HOP-18
[29] = tested on: SF-295
[30] = tested on: M19-MEL
[31] = tested on: HCT-116
[32] = tested on: SNB-78
[33] = tested on: DMS-273
[34] = tested on: OVCAR-4
[35] = tested on: ACHN
[36] = tested on: 786-0
[37] = tested on: SNB-75
[38] = tested on: LXFL 529
[39] = tested on: KM-20L2
[40] = tested on: SN12C
[41] = tested on: SNB-19
[42] = tested on: RXF 393
[43] = tested on: UACC-257
[44] = tested on: HCC 2998
[45] = tested on: A549
[46] = tested on: SF-268
[47] = tested on: M14
[48] = tested on: XF498

Measured: GI50

COC1OC(COC(C)=O)C(OC(C)=O)C(OC(C)=O)C1NC(=O)N(CCCl)N=O (stereo not drawn)
inactive: [1] > 100 µM | [2] > 100 µM | [3] 65 µM | [4] > 100 µM | [5] > 100 µM | [6] > 100 µM | [7] > 100 µM | [8] > 100 µM | [9] > 100 µM | [10] 63 µM and 44.6 µM | [11] > 100 µM | [12] > 100 µM | [13] 30.8 µM and 16.1 µM | [14] > 100 µM | [15] > 100 µM | [16] 24.1 µM and 45.9 µM | [17] > 100 µM | [18] > 100 µM | [19] > 100 µM | [20] > 100 µM | [21] > 100 µM | [22] > 100 µM | [23] 26.2 µM and 25.6 µM | [24] > 100 µM | [25] > 100 µM | [26] > 100 µM | [27] 61.4 µM and 47.3 µM | [28] > 100 µM | [29] 39.1 µM and 24.2 µM | [30] > 100 µM | [31] > 100 µM | [32] > 100 µM | [33] > 100 µM | [34] > 100 µM | [35] > 100 µM | [36] 54.6 µM and 63.4 µM | [37] 47.1 µM and 34.4 µM | [38] > 100 µM | [39] > 100 µM | [40] > 100 µM | [41] > 100 µM and 69.7 µM | [42] > 100 µM | [43] > 100 µM | [44] > 100 µM | [45] > 100 µM and 82.4 µM | [46] 26.8 µM and 20.3 µM | [47] > 100 µM | [48] > 100 µM

Reference: ChEMBL document CHEMBL1201862, “PubChem BioAssay data set” (2004)
